Experimental data from ChEMBL document CHEMBL4699513, “Sulfamic acid catalyzed synthesis of new 3,5-[(sub)phenyl]-1H-pyrazole bearing N-isonicotinoyl: And their pharmacological activity evaluation” (2020).
≈ marks a conversion by molar mass, not a printed value. Calls of active or inactive are those of the source. The calls are words filed in the database; no cut-off is given here.

Columns and labels:
Escherichia coli [1] = assay: Antimicrobial activity against Escherichia coli ATCC 25922 incubated for 24 hrs by broth microdilution method; format: functional
Escherichia coli [2] = assay: Antimicrobial activity against Escherichia coli ATCC 25922 assessed as zone of inhibition at 4 mg/ml incubated for 24 hrs by agar well diffusion method; format: functional; settings: read-out: IZ
Staphylococcus aureus [3] = assay: Antimicrobial activity against Staphylococcus aureus ATCC 29737 assessed as zone of inhibition at 4 mg/ml incubated for 24 hrs by agar well diffusion method; format: functional; settings: read-out: IZ
Staphylococcus aureus [4] = assay: Antimicrobial activity against Staphylococcus aureus ATCC 29737 incubated for 24 hrs by broth microdilution method; format: functional
[5] = tested on: Mycobacterium tuberculosis; assay: Antimycobacterial activity against Mycobacterium tuberculosis H37Rv assessed as bacterial growth inhibition at the MIC of 266 uM; format: functional; parameters: scale not given: the % may be the effect or the level left
Salmonella typhi [6] = assay: Antimicrobial activity against Salmonella typhi ATCC 23564 assessed as zone of inhibition at 4 mg/ml incubated for 24 hrs by agar well diffusion method; format: functional, Salmonella enterica subsp. enterica serovar Typhi; settings: Salmonella enterica, read-out: IZ
[7] = Antioxidant activity assessed as DPPH radical scavenging activity at 250 to 1000 ug/ml after 30 mins by UV-Vis spectrophotometric analysis; format: functional; settings: dose microg/ml 250-1000, time 30.0 min
Salmonella typhi [8] = assay: Antimicrobial activity against Salmonella typhi ATCC 23564 incubated for 24 hrs by broth microdilution method; format: functional, Salmonella enterica subsp. enterica serovar Typhi; settings: Salmonella enterica
Pseudomonas aeruginosa [9] = assay: Antimicrobial activity against Pseudomonas aeruginosa ATCC 19429 incubated for 24 hrs by broth microdilution method; format: functional
[10] = tested on: Mycobacterium tuberculosis; assay: Antimycobacterial activity against Mycobacterium tuberculosis H37Rv assessed as bacterial growth inhibition; format: functional
[11] = tested on: Mycobacterium tuberculosis; assay: Antimycobacterial activity against Mycobacterium tuberculosis H37Rv assessed as bacterial growth inhibition at the MIC of 153 uM; format: functional; parameters: scale not given: the % may be the effect or the level left
Pseudomonas aeruginosa [12] = assay: Antimicrobial activity against Pseudomonas aeruginosa ATCC 19429 assessed as zone of inhibition at 4 mg/ml incubated for 24 hrs by agar well diffusion method; format: functional; settings: for zone of inhibition at 4000 µg/mL: read-out: IZ
[13] = tested on: Mycobacterium tuberculosis; assay: Antimycobacterial activity against Mycobacterium tuberculosis H37Rv assessed as bacterial growth inhibition at MIC of 15 uM; format: functional; parameters: scale not given: the % may be the effect or the level left
[14] = tested on: Mycobacterium tuberculosis; assay: Antimycobacterial activity against Mycobacterium tuberculosis H37Rv assessed as bacterial growth inhibition at MIC of 1343 uM; format: functional; parameters: scale not given: the % may be the effect or the level left
HeLa = assay: Anticancer activity against human HeLa cells assessed as inhibition of cell growth at 40 to 80 ug/ml by sulforhodamine B assay; format: functional, cell-based; settings: dose microg/ml 40-80
[15] = tested on: Mycobacterium tuberculosis; assay: Antimycobacterial activity against Mycobacterium tuberculosis H37Rv assessed as bacterial growth inhibition at MIC of 144 uM; format: functional; parameters: scale not given: the % may be the effect or the level left
MCF7 [16] = assay: Anticancer activity against human MCF7 cells assessed as inhibition of cell growth at 80 ug/ml by sulforhodamine B assay; format: functional, cell-based; settings: dose 80.0 µg/ml
[17] = tested on: Mycobacterium tuberculosis; assay: Antimycobacterial activity against Mycobacterium tuberculosis H37Rv assessed as bacterial growth inhibition at MIC of 566 uM; format: functional; parameters: scale not given: the % may be the effect or the level left
[18] = tested on: Mycobacterium tuberculosis; assay: Antimycobacterial activity against Mycobacterium tuberculosis H37Rv assessed as bacterial growth inhibition at MIC of 31 uM; format: functional; parameters: scale not given: the % may be the effect or the level left
[19] = tested on: Mycobacterium tuberculosis; assay: Antimycobacterial activity against Mycobacterium tuberculosis H37Rv assessed as bacterial growth inhibition at MIC of 1.4 uM; format: functional; parameters: scale not given: the % may be the effect or the level left
[20] = tested on: Mycobacterium tuberculosis; assay: Antimycobacterial activity against Mycobacterium tuberculosis H37Rv assessed as bacterial growth inhibition at MIC of 237 uM; format: functional; parameters: scale not given: the % may be the effect or the level left
[21] = tested on: Mycobacterium tuberculosis; assay: Antimycobacterial activity against Mycobacterium tuberculosis H37Rv assessed as bacterial growth inhibition at MIC of 614 uM; format: functional; parameters: scale not given: the % may be the effect or the level left
[22] = tested on: Mycobacterium tuberculosis; assay: Antimycobacterial activity against Mycobacterium tuberculosis H37Rv assessed as bacterial growth inhibition at MIC of 294 uM; format: functional; parameters: scale not given: the % may be the effect or the level left
[23] = tested on: Mycobacterium tuberculosis; assay: Antimycobacterial activity against Mycobacterium tuberculosis H37Rv assessed as bacterial growth inhibition at MIC of 164 uM; format: functional; parameters: scale not given: the % may be the effect or the level left
MCF7 [24] = assay: Anticancer activity against human MCF7 cells assessed as inhibition of cell growth at 20 to 80 ug/ml by sulforhodamine B assay; format: functional, cell-based; settings: dose microg/ml 20-80
[25] = tested on: Mycobacterium tuberculosis; assay: Antimycobacterial activity against Mycobacterium tuberculosis H37Rv assessed as bacterial growth inhibition at MIC of 34 uM; format: functional; parameters: scale not given: the % may be the effect or the level left

SMILES	MIC (Escherichia coli [1]) [µM]	zone of inhibition at 4000 µg/mL (Escherichia coli [2]) [mm]	zone of inhibition at 4000 µg/mL (Staphylococcus aureus [3]) [mm]	MIC (Staphylococcus aureus [4]) [µM]	zone of inhibition at 4000 µg/mL (Salmonella typhi [6]) [mm]	Activity [7]	MIC (Salmonella typhi [8]) [µM]	MIC (Pseudomonas aeruginosa [9]) [µM]	MIC [10] [µM]	zone of inhibition at 4000 µg/mL (Pseudomonas aeruginosa [12]) [mm]	further results
CC1(C)S[C@@H]2[C@H](NC(=O)[C@H](N)c3ccccc3)C(=O)N2[C@H]1C(=O)O [AMPICILLIN]	8.9 (≈ 3.11 µg/mL)	24.4	27.3	8.9 (≈ 3.11 µg/mL)							
Cc1ccc(C2C=C(c3ccc(Cl)cc3)NN2C(=O)c2ccncc2)cc1 (configuration not stated)	533 (≈ 200 µg/mL)	12.6		66 (≈ 24.8 µg/mL)	21.4	Active	533 (≈ 200 µg/mL)	133 (≈ 50 µg/mL)	266 (≈ 100 µg/mL)		Activity [5]: 98%
O=C(c1ccncc1)N1NC(c2ccc(Br)cc2)=CC1c1ccccc1 (configuration not stated)	123 (≈ 50 µg/mL)			492 (≈ 200 µg/mL)		Active	492 (≈ 200 µg/mL)	123 (≈ 50 µg/mL)	153 (≈ 62.2 µg/mL)	10.3	Activity [11]: 97%
CC[C@@H](CO)NCCN[C@@H](CC)CO [ETHAMBUTOL]									15 (≈ 3.06 µg/mL)		Activity [13]: 99%
O=C(c1ccncc1)N1NC(c2ccccc2)=CC1c1cccc([N+](=O)[O-])c1 (configuration not stated)	268 (≈ 99.8 µg/mL)	10.2	8.4	537 (≈ 200 µg/mL)	15.3	Active	537 (≈ 200 µg/mL)	67 (≈ 24.9 µg/mL)	1340 (≈ 500 µg/mL)	12.3	Activity [14]: 95%
COc1cccc(C2=CC(c3ccc(Br)cc3)N(C(=O)c3ccncc3)N2)c1 (configuration not stated)	57 (≈ 24.9 µg/mL)	16.4	26.4	14 (≈ 6.11 µg/mL)	22.4	Active	114 (≈ 49.7 µg/mL)	229 (≈ 99.9 µg/mL)	144 (≈ 62.8 µg/mL)	14.3	Activity (HeLa): Active; Activity [15]: 98%; Activity (MCF7 [16]): Active
O=C(c1ccncc1)N1NC(c2ccc(Cl)cc2Cl)=CC1c1cccc([N+](=O)[O-])c1 (configuration not stated)	113 (≈ 49.9 µg/mL)	12.4	23.8	226 (≈ 99.7 µg/mL)	21	Active	453 (≈ 200 µg/mL)	453 (≈ 200 µg/mL)	566 (≈ 250 µg/mL)		Activity [17]: 95%
COc1cccc(C2=CC(c3ccc(Cl)cc3)N(C(=O)c3ccncc3)N2)c1 (configuration not stated)	127 (≈ 49.8 µg/mL)	12.3	27.2	31 (≈ 12.1 µg/mL)		Active	511 (≈ 200 µg/mL)	63 (≈ 24.7 µg/mL)	31 (≈ 12.1 µg/mL)	12.3	Activity [18]: 99%
CN[C@@H]1[C@H](O[C@H]2[C@H](O[C@H]3[C@H](O)[C@@H](O)[C@H](N=C(N)N)[C@@H](O)[C@@H]3N=C(N)N)O[C@@H](C)[C@]2(O)C=O)O[C@@H](CO)[C@H](O)[C@H]1O [STREPTOMYCIN]	5.3 (≈ 3.08 µg/mL)	22.2	30.6	5.3 (≈ 3.08 µg/mL)	29.1		5.3 (≈ 3.08 µg/mL)	5.3 (≈ 3.08 µg/mL)		25	
NNC(=O)c1ccncc1 [ISONIAZID]									1.4 (≈ 0.192 µg/mL)		Activity [19]: 99%
Cc1ccc(C2=CC(c3ccc(Br)cc3)N(C(=O)c3ccncc3)N2)cc1 (configuration not stated)	118 (≈ 49.6 µg/mL)		25.4	14 (≈ 5.88 µg/mL)		Active	237 (≈ 99.6 µg/mL)	14 (≈ 5.88 µg/mL)	237 (≈ 99.6 µg/mL)	20.4	Activity [20]: 97%
O=C(c1ccncc1)N1NC(c2ccc(Cl)cc2)=CC1c1ccc([N+](=O)[O-])cc1 (configuration not stated)	122 (≈ 49.6 µg/mL)	17.1	23.4	245 (≈ 99.7 µg/mL)	18.3	Active	245 (≈ 99.7 µg/mL)	122 (≈ 49.6 µg/mL)	614 (≈ 250 µg/mL)	14.2	Activity [21]: 95%
O=C(c1ccncc1)N1NC(c2ccc(F)cc2)=CC1c1ccc(Br)cc1 (configuration not stated)	58 (≈ 24.6 µg/mL)		17.8	235 (≈ 99.7 µg/mL)	22.3	Active	117 (≈ 49.6 µg/mL)	29 (≈ 12.3 µg/mL)	294 (≈ 125 µg/mL)	12.4	Activity [22]: 96%
O=C(c1ccncc1)N1NC(c2ccc(Cl)cc2)=CC1c1ccc(F)cc1 (configuration not stated)	32 (≈ 12.2 µg/mL)	15	22.3	131 (≈ 49.8 µg/mL)		Active	263 (≈ 99.9 µg/mL)	131 (≈ 49.8 µg/mL)	164 (≈ 62.3 µg/mL)	12.3	Activity [23]: 96%
Cc1ccc(C2=CC(c3ccc(F)cc3)N(C(=O)c3ccncc3)N2)cc1 (configuration not stated)	139 (≈ 50 µg/mL)		27	17 (≈ 6.11 µg/mL)		Active	278 (≈ 99.9 µg/mL)	139 (≈ 50 µg/mL)	34 (≈ 12.2 µg/mL)		inhibition zone (IZ) (Pseudomonas aeruginosa [12]): Active; Activity (MCF7 [24]): Active; Activity [25]: 99%
